Test results reported in publication PMC9632859, “Modulation of NMDA receptor activity by CR4056, an imidazoline-2 receptor ligand with analgesic properties” (Frontiers in Pain Research, 2022).

Tested on: NMDA receptor
Assay: NMDA-evoked currents in primary culture of cortical neurons, whole-cell patch-clamp
Type: cell-based, rat
Conditions: 10 µM
Protocol: Primary cultures of cortical (CX) and cerebellar (CB) neurons were prepared from newborn (CX) or seven days old (CB) Sprague-Dawley rats Briefly, cells from cortex and cerebellum were dispersed with trypsin (0.24 mg/ml; Sigma Aldrich, Milan, Italy) and plated at a density of 0.8 × 10^6 cells/ml on 35 mm Falcon dishes coated with poly-L-lysine (10 µg/ml, Sigma Aldrich). Cells were plated in basal Eagle's Medium (BME; Celbio, Milan, Italy), supplemented with 10% fetal bovine serum (Celbio), 2 mM glutamine, 25 mM KCl and 100 µg/ml gentamycin (Sigma Aldrich) and maintained at 37°C in 5% CO2. After 24 h in vitro, the medium was replaced with 1:1 mixture of BME and Neurobasal medium (Celbio, Milan) containing 2% B27 supplement, 1% antibiotic, and 0.25% glutamine (Invitrogen). At […] in vitro (DIV5), cytosine arabinofuranoside (Ara-C) was added at final concentration of 1 µM. Thereafter, half of the medium was replaced twice a week with Neurobasal medium containing 2% B27 supplement, 1% antibiotic, and 0.25% glutamine.
Recordings were performed in cortical and cerebellar neurons after 7–9 days in culture or in spinal cord slices from postnatal rats. All recordings were performed at room temperature, under voltage-clamp in the whole-cell configuration of the patch-clamp technique ([19]). […] Currents were amplified with an Axopatch 1D amplifier (Axon Instruments, Foster City. CA), filtered at 5 kHz, digitized at 10 kHz.
The chamber used for recording from cultured neurons was continuously perfused at 2 ml/min with an extracellular medium composed of (mM): 145 NaCl, 5 KCl, 1 CaCl2, 5 Hepes, 5 Glucose, and 20 Sucrose, pH 7.4 with NaOH. Intracellular solution contains (mM): 140 KCl, 3 MgCl2, 5 EGTA, 5 Hepes, and 2 ATP-Na, pH 7.3 with KOH.
All drugs were applied directly by gravity through a Y-tube perfusion system ([21]) in the experiments performed in culture while in slice experiments CR4056 and the receptor antagonists were bath perfused.
When CR4056 (10 µM) was delivered inside the cell through the patch pipette the response to NMDA application was recorded at time 0 (just after breaking inside the cell) and after 1.5, 3, 4.5, 6 min. The NMDA-evoked current was recorded at these time intervals and the amplitude of the current was measured.
The effect of CR 4056 in primary neuronal cultures was calculated as % variation of the NMDA-evoked current after application of the drug. A negative variation means a reduction of the control current. Off-line data analysis, curve fitting, and figure preparation were performed with Clampfit 9 or 10 (Molecular Devices, Sunnyvale, CA, United States), Origin 4.1 (Microcal, Northampton, MA, United States), and Microsoft Office (Microsoft). SigmaPlot 11 (SYSTAT, Palo Alto, CA, United States) and GraphPad Prism 9.3 (GraphPad Software, San Diego, CA, United States) were used for statistical analysis.
NMDA-evoked currents were recorded in primary culture of cortical neurons using the patch-clamp technique in the whole cell configuration. Fast application of NMDA (100 µM) and Glycine (10 µM) elicited an inward current that was decreased by CR4056 (Figure 1A); the effect was reversible and dose-dependent (Figure 1B). […] (Figure 1B).

c1ccc2c(c1)OCC(C1=NCCN1)O2 (stereo not shown) [Idazoxan, reference compound]
effect on NMDA-elicited current applied alone: did not affect
